Laboratory results from publication PMC7093416, “Selective USP7 inhibition elicits cancer cell killing through a p53-dependent mechanism” (Scientific Reports, 2020).

Assays:
[1] = molecular target: T1, 60 DUBs in HEK293AD lysate (Homo sapiens, UniProt Q93009); experiment: In situ DUB profiling: competitive ABPP with Bio-Ub-PA/Bio-Ub-VME and quantitative MS; assay type: binding; conditions: HEK293 crude cell extract, 5 hours pre-incubation
T1 construct: endogenous in cells; host or cells: HEK 293AD lysate
T1 sequence (Q93009 whole entry): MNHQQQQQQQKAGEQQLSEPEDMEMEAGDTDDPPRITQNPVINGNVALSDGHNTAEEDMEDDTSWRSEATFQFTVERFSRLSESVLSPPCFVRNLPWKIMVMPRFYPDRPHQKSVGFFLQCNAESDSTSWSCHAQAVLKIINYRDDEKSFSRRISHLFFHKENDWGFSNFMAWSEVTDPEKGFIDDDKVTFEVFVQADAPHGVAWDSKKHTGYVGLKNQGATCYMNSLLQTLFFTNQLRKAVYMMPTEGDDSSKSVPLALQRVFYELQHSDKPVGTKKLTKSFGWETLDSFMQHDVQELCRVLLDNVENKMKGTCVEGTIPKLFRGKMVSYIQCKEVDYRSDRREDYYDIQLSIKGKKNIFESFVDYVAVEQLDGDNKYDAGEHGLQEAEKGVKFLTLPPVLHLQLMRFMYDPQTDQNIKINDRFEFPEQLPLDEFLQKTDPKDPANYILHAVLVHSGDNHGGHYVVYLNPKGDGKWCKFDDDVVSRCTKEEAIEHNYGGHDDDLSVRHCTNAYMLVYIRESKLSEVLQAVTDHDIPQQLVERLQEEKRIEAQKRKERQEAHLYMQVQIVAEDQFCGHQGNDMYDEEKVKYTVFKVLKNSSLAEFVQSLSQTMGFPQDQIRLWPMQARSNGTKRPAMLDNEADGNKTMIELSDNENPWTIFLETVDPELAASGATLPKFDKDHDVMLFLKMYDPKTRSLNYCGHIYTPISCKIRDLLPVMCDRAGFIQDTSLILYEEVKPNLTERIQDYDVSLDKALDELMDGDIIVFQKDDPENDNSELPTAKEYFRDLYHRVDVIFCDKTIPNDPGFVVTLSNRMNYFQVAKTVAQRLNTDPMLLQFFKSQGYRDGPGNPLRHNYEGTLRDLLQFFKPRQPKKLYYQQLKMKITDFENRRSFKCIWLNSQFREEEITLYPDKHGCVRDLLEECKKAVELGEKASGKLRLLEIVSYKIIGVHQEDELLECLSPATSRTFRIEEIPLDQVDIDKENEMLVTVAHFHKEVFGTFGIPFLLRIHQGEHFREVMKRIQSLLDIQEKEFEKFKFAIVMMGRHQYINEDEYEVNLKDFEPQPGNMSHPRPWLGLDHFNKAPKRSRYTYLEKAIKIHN
Description: (§1) DUB profiling was performed using conditions similar to those in Lawson et al[63]. HEK 293AD cells were lysed using target engagement lysis buffer (50 mM Tris pH 8.0, 150 mM NaCl, 5 mM MgCl2, 0.5 mM EDTA, 0.5% NP-40, 10% glycerol, 1 mM TCEP, protease and phosphatase inhibitors), and the lysate was cleared by centrifugation. Samples were diluted to 2 mg/mL, and 1 mL lysate was incubated with the indicated concentration of XL177A for 5 hours at RT. Excess inhibitor was removed using a 30 K Amicon spin filter, then the resulting lysate was incubated with 1 μM each of Biotin-Ub-PA and Biotin-Ub-VME for 90 minutes at RT. SDS was added to a final concentration of 1.2%, and samples were heated to 80 °C for 5 minutes. After cooling to RT, 1X PBS was added to dilute the final SDS concentration to 0.2%. 100 μL streptavidin agarose slurry was added to each sample, followed by incubation at RT for 3 hours. After streptavidin enrichment, samples were washed vigorously (2×0.2% SDS, 3x PBS, 3x ddH2O). […]
(§2) To remove rapigest, recovered supernatants were acidified with 10% TFA, incubated at 37 °C for 45 minutes, and centrifuged at 14,000 rpm for 15 minutes at 4 °C. […] Eluted peptides were then analyzed by nanoflow LC-MS/MS as described[64] with a NanoAcquity UPLC system (Waters, Milford, MA) interfaced to a QExactive HF mass spectrometer (Thermofisher Scientific, San Jose, CA). […]

[2] = system: 60 DUBs in HEK293AD lysate; experiment: as above; assay type: binding, human; conditions: in vitro and activity-based proteomic profiling
Description: as §1, §2

BZW2 = molecular target: T2, BZW2 (Homo sapiens, UniProt Q9Y6E2); experiment: XL177A-DTB chemoproteomic profiling with XL177A competition, BZW2; assay type: binding; conditions: BZW2 reporter ion intensity
T2 construct: endogenous in cells; host or cells: HEK 293AD lysate
T2 sequence (Q9Y6E2 1-419): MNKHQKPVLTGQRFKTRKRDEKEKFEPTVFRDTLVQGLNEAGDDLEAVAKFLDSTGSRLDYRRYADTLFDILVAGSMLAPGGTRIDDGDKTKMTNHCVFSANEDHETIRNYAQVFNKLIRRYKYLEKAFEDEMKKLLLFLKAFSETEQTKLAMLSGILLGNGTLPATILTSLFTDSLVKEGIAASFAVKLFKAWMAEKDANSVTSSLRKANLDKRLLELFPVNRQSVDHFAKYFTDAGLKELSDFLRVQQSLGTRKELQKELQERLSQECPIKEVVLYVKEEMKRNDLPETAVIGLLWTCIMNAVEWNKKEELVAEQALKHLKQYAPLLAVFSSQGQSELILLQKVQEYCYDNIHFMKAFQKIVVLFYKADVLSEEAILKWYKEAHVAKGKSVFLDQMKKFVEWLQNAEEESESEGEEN
Description: HEK 293AD cells were lysed as described above, and the lysate was cleared by centrifugation. […] SDS was added to a final concentration of 1.2% (27.2 μL of a 10% stock), and denatured by heating to 80 °C for 5 minutes. After cooling to RT, 1125 μL 1X PBS was added to dilute the final SDS concentration to 0.2%. 50 μL streptavidin agarose slurry was added to each sample, followed by incubation at RT for 3 hours. After streptavidin enrichment, samples were washed vigorously (2×0.2% SDS, 3x PBS, 3x ddH2O). After the final wash, all supernatant was removed using a flat-bottom tip, and the resin was flash frozen and stored at −80 °C until workup for TMT labeling.
To remove rapigest, recovered supernatants were acidified with 10% TFA, incubated at 37 °C for 45 minutes, and centrifuged at 14,000 rpm for 15 minutes at 4 °C. Peptides were then desalted by C18, and dried by vacuum centrifugation. Dried peptides were reconstituted in 50 mM pH8.0 TEAB and labeled with TMT reagent at RT for 1 hour. TMT reactions were pooled and treated with hydroxylamine according to the manufacturer’s instructions. Peptide mixtures were then dried, reconstituted in 50 mM ammonium bicarbonate and desalted by SP3[53]. Eluted peptides were then analyzed by nanoflow LC-MS/MS as described[64] with a NanoAcquity UPLC system (Waters, Milford, MA) interfaced to a QExactive HF mass spectrometer (Thermofisher Scientific, San Jose, CA). TMT labeled peptides were injected onto a precolumn (4 cm POROS 10R2, Applied Biosystems, Framingham, MA), resolved on an analytical column (30 µm I.D. × 50 cm packed with 5 µm Monitor C18) and introduced to the mass spectrometer by ESI (spray voltage = 3.5 kV, flow rate ~30 nL/min). The mass spectrometer was operated in data dependent mode such that the 15 most abundant ions in each MS scan (m/z 300–2000, 120 K resolution, target = 3E6, lock mass for 445.120025 enabled) were subjected to MS/MS (m/z 100–2000, 30 K resolution, target = 1E5, max fill time = 100 ms). Dynamic exclusion was selected with a repeat count of 1 and an exclusion time of 30 seconds. MS/MS data was extracted to.mgf using mulitplierz scripts[54],[55] and searched against a forward-reverse human NCBI refseq database using Mascot version 2.6. Search parameters specified fixed carbamidomethylation of cysteine, fixed N-terminal and lysine TMT labelling, and variable oxidation (methionine). Additional multiplierz scripts were used to filter results to 1% FDR and derive protein-level aggregate reporter ion intensities using peptides mapping uniquely into the genome.

MCF7 cells = experiment: Cell cycle analysis by propidium iodide staining; assay type: cell-based; conditions: 1 μM, 24 hours
Description: For propidium iodide (PI) staining, treated cells (~1 million per condition) were washed with cold PBS, then fixed in 80% ethanol overnight at −20 °C. After fixing, cells were pelleted, washed with PBS, and reconstituted in 500 μL FxCycle PI / RNAse A staining solution (Thermo Fisher). Cells were stored overnight at 4 °C and analyzed using a BD Fortessa flow cytometer.

[3] = XL177A-DTB pulldown, HEK293AD lysate pre-treated 100nM XL177A
[4] = XL177A-DTB pulldown, HEK293AD lysate pre-treated 1uM XL177A
[5] = XL177A-DTB pulldown, HEK293AD lysate pre-treated 10uM XL177A
[6] = average of Run 1 and Run 2, 100nM XL177A
[7] = average of Run 1 and Run 2, 1uM XL177A
[8] = average of Run 1 and Run 2, 10uM XL177A

- USP7 labeling by DUB ABPs [1]: significantly blocked USP7 labeling
- Run 1 100nM 1 (BZW2; [3]): 6095061
- Run 1 100nM 2 (BZW2; [3]): 5618739
- Run 1 100nM 3 (BZW2; [3]): 5891848
- Run 2 100nM 1 (BZW2; [3]): 6367486
- Run 2 100nM 2 (BZW2; [3]): 5770311
- Run 2 100nM 3 (BZW2; [3]): 6244557
- Run 1 1uM 1 (BZW2; [4]): 5512643
- Run 1 1uM 2 (BZW2; [4]): 3810437
- Run 1 1uM 3 (BZW2; [4]): 5451627
- Run 2 1uM 1 (BZW2; [4]): 5833621
- Run 2 1uM 2 (BZW2; [4]): 3936167
- Run 2 1uM 3 (BZW2; [4]): 5735390
- Run 1 10uM 1 (BZW2; [5]): 4021260
- Run 1 10uM 2 (BZW2; [5]): 4066194
- Run 2 10uM 1 (BZW2; [5]): 4140296
- Run 2 10uM 2 (BZW2; [5]): 4394498
- AVE 100nM 1 (BZW2; [6]): 6231274
- AVE 100nM 2 (BZW2; [6]): 5694525
- AVE 100nM 3 (BZW2; [6]): 6068202
- AVE 1uM 1 (BZW2; [7]): 5673132
- AVE 1uM 2 (BZW2; [7]): 3873302
- AVE 1uM 3 (BZW2; [7]): 5593508
- AVE 10uM 1 (BZW2; [8]): 4080778
- AVE 10uM 2 (BZW2; [8]): 4230346
SMILES: CN1CCN(CCC(=O)Nc2ccc3c(=O)n(CC4(O)CCN(C(=O)[C@@H](CCCNC(=O)c5ccc6c(Cl)c7c(nc6c5)CCCC7)Cc5ccccc5)CC4)cnc3c2)CC1 [XL177A]
- selectivity for USP7 over closely related DUBs [2]: > 10 fold
- cell cycle effect (MCF7 cells): complete G1 arrest
